The assay concerns HBsAg. Put plainly: HBsAg assay (chemiluminescence immunoassay of secreted HBsAg). The note with it: Hepatitis B virus, HepG2.2.15, HBsAg secretion, HepG2.2.15 cells, CLIA of culture supernatant. In kind it is cell-based, HBV. In short, it runs like this: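 HepG2.2.15 cells, in duplicate, treated with three-fold serial compound dilutions (1% DMSO final); secreted HBsAg in supernatant quantified by chemiluminescence immunoassay; IC50 is the concentration reducing HBsAg secretion by 50% versus the DMSO control.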
For the compound `CC(=O)N1CCN(c2cc(F)nc(N3CCc4nc(-c5ccccn5)ncc4C3C)c2)CC1` (centres unmarked) [Example 69, 1-[4-[2-fluoro-6-[5-methyl-2-(2-pyridyl)-7,8-dihydro-5H-pyrido[4,3-d]pyrimidin-6-yl]-4-pyridyl]piperazin-1-yl]ethanone], the IC50 stood at 0.014 µM.

For `CC(=O)N1CCN(c2cc(F)cc(N3CCc4nc(-c5ccccn5)ncc4C3C)n2)CC1` (centres unmarked) [Example 70, 1-[4-[4-fluoro-6-[5-methyl-2-(2-pyridyl)-7,8-dihydro-5H-pyrido[4,3-d]pyrimidin-6-yl]-2-pyridyl]piperazin-1-yl]ethanone], the IC50 is 0.016 µM.

With `CC1c2cnc(-c3ccccn3)nc2CCN1c1cc(N2CCN(S(C)(=O)=O)CC2)cc(F)n1` (centres unmarked) [Example 71, 6-[6-fluoro-4-(4-methylsulfonylpiperazin-1-yl)-2-pyridyl]-5-methyl-2-(2-pyridyl)-7,8-dihydro-5H-pyrido[4,3-d]pyrimidine], 0.008 µM corresponded to half-maximal inhibition (IC50).

`CC1c2cnc(-c3ccccn3)nc2CCN1c1cc(F)cc(N2CCN(S(C)(=O)=O)CC2)n1` (centres unmarked) [Example 72, 6-[4-fluoro-6-(4-methylsulfonylpiperazin-1-yl)-2-pyridyl]-5-methyl-2-(2-pyridyl)-7,8-dihydro-5H-pyrido[4,3-d]pyrimidine] gave a concentration for half-maximal inhibition (IC50) of 0.058 µM. Against the preceding compound, the IC50 is about 7.2-fold higher.

The compound `CC1c2cnc(-c3ccccn3)nc2CCN1c1cc(N2CCC(C(N)=O)CC2)cc(F)n1` (centres unmarked) [Example 73, 1-[2-fluoro-6-[5-methyl-2-(2-pyridyl)-7,8-dihydro-5H-pyrido[4,3-d]pyrimidin-6-yl]-4-pyridyl]piperidine-4-carboxamide] had an IC50 of 0.01 µM.

For `CC1c2cnc(-c3ccccn3)nc2CCN1c1cc(F)cc(N2CCC(C(N)=O)CC2)n1` (centres unmarked) [Example 74, 1-[4-fluoro-6-[5-methyl-2-(2-pyridyl)-7,8-dihydro-5H-pyrido[4,3-d]pyrimidin-6-yl]-2-pyridyl]piperidine-4-carboxamide], half-maximal inhibition (IC50) required 0.019 µM.

Turning to `CC1c2cnc(-c3ccccn3)nc2CCN1c1cc(N2CCCC(C(N)=O)C2)cc(F)n1` (centres unmarked) [Example 75, 1-[2-fluoro-6-[5-methyl-2-(2-pyridyl)-7,8-dihydro-5H-pyrido[4,3-d]pyrimidin-6-yl]-4-pyridyl]piperidine-3-carboxamide], inhibition was half-maximal at 0.039 µM (IC50). This IC50 lies about 2.1-fold higher than the previous one.

The compound `CC1c2cnc(-c3ccccn3)nc2CCN1c1cc(F)cc(N2CCCC(C(N)=O)C2)n1` (centres unmarked) [Example 76, 1-[4-fluoro-6-[5-methyl-2-(2-pyridyl)-7,8-dihydro-5H-pyrido[4,3-d]pyrimidin-6-yl]-2-pyridyl]piperidine-3-carboxamide] showed an IC50 of 0.044 µM.

Turning to `CC1c2cnc(-c3ncccn3)nc2CCN1c1cc(NS(=O)(=O)c2ccccc2)cc(F)n1` (centres unmarked) [Example 77, N-[2-fluoro-6-(5-methyl-2-pyrimidin-2-yl-7,8-dihydro-5H-pyrido[4,3-d]pyrimidin-6-yl)-4-pyridyl]benzenesulfonamide], 0.554 µM corresponded to half-maximal inhibition (IC50).

For the compound `CC1c2cnc(-c3ncccn3)nc2CCN1c1cc(F)cc(NS(=O)(=O)c2ccccc2)n1` (centres unmarked) [Example 78, N-[4-fluoro-6-(5-methyl-2-pyrimidin-2-yl-7,8-dihydro-5H-pyrido[4,3-d]pyrimidin-6-yl)-2-pyridyl]benzenesulfonamide], the IC50 is 0.263 µM. This IC50 is about 2.1-fold lower than that of the compound before.

Regarding `CC1c2cnc(-c3ccccn3)nc2CCN1c1cc(NCC(F)F)cc(F)n1` (centres unmarked) [Example 79], the IC50 turned out to be 0.071 µM.

On to `CC1c2cnc(-c3ccccn3)nc2CCN1c1cc(F)cc(NCC(F)F)n1` (centres unmarked) [Example 80, N-(2,2-difluoroethyl)-4-fluoro-6-[5-methyl-2-(2-pyridyl)-7,8-dihydro-5H-pyrido[4,3-d]pyrimidin-6-yl]pyridin-2-amine], for which the concentration for half-maximal inhibition (IC50) was determined as 0.124 µM.

In the case of `CC1c2cnc(-c3ncccn3)nc2CCN1c1cc(F)cc(N2CC(C(N)=O)C2)n1` (centres unmarked) [Example 81, 1-[4-fluoro-6-(5-methyl-2-pyrimidin-2-yl-7,8-dihydro-5H-pyrido[4,3-d]pyrimidin-6-yl)-2-pyridyl]azetidine-3-carboxamide], inhibition was half-maximal at 0.206 µM (IC50).

Take `CC1c2cnc(-c3ncccn3)nc2CCN1c1cc(N2CC(C(N)=O)C2)cc(F)n1` (centres unmarked) [Example 82, 1-[2-fluoro-6-(5-methyl-2-pyrimidin-2-yl-7,8-dihydro-5H-pyrido[4,3-d]pyrimidin-6-yl)-4-pyridyl]azetidine-3-carboxamide]: the concentration for half-maximal inhibition (IC50) amounted to 0.149 µM.

In turn, `COC1CCN(c2cc(F)nc(N3CCc4nc(-c5ccccn5)ncc4C3C)c2)C1` (centres unmarked) [Example 83, 6-[6-fluoro-4-(3-methoxypyrrolidin-1-yl)-2-pyridyl]-5-methyl-2-(2-pyridyl)-7,8-dihydro-5H-pyrido[4,3-d]pyrimidine] yielded an IC50 of 0.02 µM.

The compound `COC1CCN(c2cc(F)cc(N3CCc4nc(-c5ccccn5)ncc4C3C)n2)C1` (centres unmarked) [Example 84, 6-[4-fluoro-6-(3-methoxypyrrolidin-1-yl)-2-pyridyl]-5-methyl-2-(2-pyridyl)-7,8-dihydro-5H-pyrido[4,3-d]pyrimidine] yielded an IC50 of 0.023 µM. This IC50 and that of the compound before are within 1.5-fold of each other.

With `CC1c2cnc(-c3ccccn3)nc2CCN1c1cc(F)cc(N2CCC(C(=O)NS(C)(=O)=O)C2)n1` (centres unmarked) [Example 85, 1-[4-fluoro-6-[5-methyl-2-(2-pyridyl)-7,8-dihydro-5H-pyrido[4,3-d]pyrimidin-6-yl]-2-pyridyl]-N-methylsulfonyl-pyrrolidine-3-carboxamide], half-maximal inhibition (IC50) was put at 0.264 µM.

`CC1c2cnc(-c3ccccn3)nc2CCN1c1cc(N2CCC(C(=O)NS(C)(=O)=O)C2)cc(F)n1` (centres unmarked) [Example 86, 1-[2-fluoro-6-[5-methyl-2-(2-pyridyl)-7,8-dihydro-5H-pyrido[4,3-d]pyrimidin-6-yl]-4-pyridyl]-N-methylsulfonyl-pyrrolidine-3-carboxamide] had an IC50 of 1.24 µM. This IC50 lies about 4.7-fold higher than the previous one.

For `COCCS(=O)(=O)N1CCN(c2cc(F)nc(N3CCc4nc(-c5ncccn5)ncc4C3C)c2)CC1` (centres unmarked) [Example 87, 6-[6-fluoro-4-[4-(2-methoxyethylsulfonyl)piperazin-1-yl]-2-pyridyl]-5-methyl-2-pyrimidin-2-yl-7,8-dihydro-5H-pyrido[4,3-d]pyrimidine], the half-inhibitory concentration (IC50) came to 0.005 µM.

In turn, `CC1c2cnc(-c3ncccn3)nc2CCN1c1cc(N2CCC(NS(C)(=O)=O)CC2)cc(F)n1` (centres unmarked) [Example 88, N-[1-[2-fluoro-6-(5-methyl-2-pyrimidin-2-yl-7,8-dihydro-5H-pyrido[4,3-d]pyrimidin-6-yl)-4-pyridyl]-4-piperidyl]methanesulfonamide] had an IC50 of 0.018 µM.

Compound `CC1c2cnc(-c3ncccn3)nc2CCN1c1cc(F)cc(N2CCC(NS(C)(=O)=O)CC2)n1` (centres unmarked) [Example 89, N-[1-[4-fluoro-6-(5-methyl-2-pyrimidin-2-yl-7,8-dihydro-5H-pyrido[4,3-d]pyrimidin-6-yl)-2-pyridyl]-4-piperidyl]methanesulfonamide] registered an IC50 of 0.012 µM.

`CCS(=O)(=O)N1CCN(c2cc(F)cc(N3CCc4nc(-c5ncccn5)ncc4C3C)n2)CC1` (centres unmarked) [Example 91, 6-[6-(4-ethylsulfonylpiperazin-1-yl)-4-fluoro-2-pyridyl]-5-methyl-2-pyrimidin-2-yl-7,8-dihydro-5H-pyrido[4,3-d]pyrimidine] returned an IC50 of 0.012 µM.

Compound `CC1c2cnc(-c3ncccn3)nc2CCN1c1cc(F)cc(N2CC(C(=O)O)C(C)(C)C2)n1` (centres unmarked) [Example 92, 1-[4-fluoro-6-(5-methyl-2-pyrimidin-2-yl-7,8-dihydro-5H-pyrido[4,3-d]pyrimidin-6-yl)-2-pyridyl]-4,4-dimethyl-pyrrolidine-3-carboxylic acid] returned an IC50 of 0.139 µM.

Broadly, the IC50 is the concentration that inhibits the measured activity by half. High values mean weaker potency, low ones greater potency.
